According to US11771737B2, “Treating or preventing adverse liver conditions” (priority 2017, dated 2023):

Columns and labels:
[1] = oral vancomycin, cited from earlier work
Clostridum Cluster XIVa = assay: Stool levels of Clostridium Cluster XIVa by real-time PCR; assay type: in vivo, mice; settings: single antibiotic administration
Procedure: FIG. 31 is a dot plot showing the stool levels of Clostridum Cluster XIVa from single antibiotic administration measured by real-time PCR. Mice were administered vancomycin, neomycin, cefoparazone or H2O. n=4 for H2O, 10 for vancomycin, 5 for neomycin, p<0.05, one-way ANOVA.
The 7α-dehydroxylation reaction is the most quantitatively important process performed by the gut bacteria in the production of secondary bile acids. This multistep biochemical process is restricted to a narrow phylogenetic group of gram-positive bacterial species belonging to the Clostridium cluster XIV.

stool bacteria = assay: Stool bacteria analysis by 16S rRNA sequencing; assay type: in vivo, mice
Procedure: (§1) FIG. 33A is a line graph showing stool bacteria analysis performed by 16S rRNA sequencing, in accordance with embodiments of the invention. Five week old mice were administered vancomycin for one week. Then vancomycin was stopped, and mice were given oral gavage of C. scindens or vehicle (cessation). Measurements were taken twenty-four hours after gavage. Alpha diversity is shown.
as §1, with “33B” for “33A”, “dot plot” for “line graph”, “Beta” for “Alpha”
Mice were fed with vancomycin in drinking water (Hospira, 0.5 g/L) for one week. Fresh antibiotic water was replaced every other day. One week later vancomycin was stopped, and the mice were given oral gavage of 10^9 C. scindens or vehicle (anaerobic glycerol) every day for 5 days. C. scindens was purchased from ATCC (35704), and grown under anaerobic conditions. One day after gavage, the colonization of C. scindens were confirmed by real-time PCR using primers specific for C. scindens.
Mouse stool DNA extraction and 16S V4 tregion amplification were performed on the liquid handling robots (epMotion 5075 and epMotion 5073, Eppendorf, Hamburg, Germany). The V4 region of the 16S rDNA gene (515F-806R) was sequenced, generating partially overlapping, paired-end reads on the Illumina MiSeq platform (Illumina, San Diego, Calif., USA). After quality control filtering, a total of 3,979,728 reads were processed with an average of 132,657 reads per sample. The demultiplexed FASTQ files containing the 16S rRNA gene sequences were filtered for chimeric sequences using the USEARCH (Edgar, Bioinformatics, 26: 2460-2461 (2010), incorporated by reference herein; version 8.1.1831) utility's UCHIME implementation and the ‘gold’ database (version microbiomeutil-r20110519). The reads were then binned into Operational Taxonomic Units (OTUs) at 97% similarity using USEARCH's cluster_otus command. The OTUs thus obtained were classified and aligned using QIIME (Caporaso et al., Nat. Methods, 7: 335-336 (2010), incorporated by reference herein; version 1.9.1) scripts. The assign_taxonomy.py script was used to assign taxonomy using the default RDP method (Wang et al., Appl. Environ. Microbiol., 73: 5261-5267 (2007), incorporated by reference herein) and the default GreenGenes database (DeSantis et al., Appl. Environ. Microbiol., 72: 5069-5072 (2006), incorporated by reference herein). This provided insight into the larger trends at higher taxonomic levels (such as order Clostridiales).
Next, the possible role of Clostridium species on liver NKT cell accumulation was tested in a colonization experiment. Clostridium scindens was chosen because it is commonly found in both mice and human and has a conserved bai (“bile acid inducible”) gene operon for the 7α-dehydroxylation reaction. Mice were fed with vancomycin for one week to induce hepatic NKT cells, then vancomycin was stopped, and the mice were given C. scindens or vehicle. The successful colonization with Clostridium scindens was confirmed (FIG. 32). One day after oral gavage, fecal bacterial were analyzed by 16S rRNA sequencing (FIGS. 33A and 33B, Table 1).

hepatic NKT cells [2] = assay: Flow cytometry of liver and spleen immune cell subsets of treated mice; assay type: in vivo; settings: single antibiotic; for hepatic CD4+ or CD8+ T cells: FIGS. 29H and 29I; for hepatic NKT cells: naïve C57BL/6 mice
Procedure: Cells were surface-labelled with the indicated antibodies for 15 min at 4° C. Intracellular staining using a Foxp3/transcription factor staining buffer set (eBioscience, now part of ThermoFisher Scientific, Waltham, Mass., USA) was used according the manufacturer's instructions. Flow cytometry was performed on a BD LSRFortessa platform (BD Biosciences, San Jose, Calif., USA) and results were analyzed using FlowJo software version 9.3.1.2 (TreeStar, Ashland, Oreg., USA). Dead cells were excluded by using live/dead fixable near-IR dead cell staining kit (ThermoFisher Scientific).
The following antibodies were used for flow cytometry analysis: anti-TCRβ-BV510 (clone H57-587, Biolegend, San Diego, Calif., USA), PBS57/CD1d-tetramer-APC (NIH core facility, Bethesda, Md., USA), anti-CXCR6-FITC (clone SA051D1, Biolegend), anti-CD3-PE (clone 17A2, Biolegend), anti-CD4-PE (clone RM4-5, Biolegend), anti-CD4-Alexa Fluor 700 (clone GK1.5, Biolegend), anti-CD8-BV210 (clone 53-61 Biolegend), anti-CD19-PerCP/Cy5.5 (clone eBiolD3, eBioscience), anti-CD49b (clone DX5, eBioscience), anti-TCRγ/δ-PE, (clone GL3, BD pharmingen, BD Biosciences), anti-CD11b-BV421 (clone M1/70, Biolegend), anti-Ly6G-Alexa Fluor 700 (clone 1A8, Biolegend), anti-Ly6C-APC (clone HK1.4, Biolegend), anti-CD44-PE/Cy7 (clone IM7, eBioscience), anti-CD62L-PerCP/Cy5.5 (MEL-14, Biolegend), anti-CD69-Pacific blue (clone H1.2F3, Biolegend), anti-CD25-FITC (clone 7D4, BD pharmingen), anti-4-1BB-PE (clone 17B5, Biolegend), anti-Foxp3-Alexa Fluor 488 (clone 22F6, Biolegend), anti-Tbet-Pacific Blue (clone 4B10, Biolegend), anti-RORγ-PE (clone B2D, eBioscience), anti-PLZF-PerCP/Cy5.5 (clone 9E12, Biolegend), anti-CD1d-PE (clone 1B1, eBioscience), anti-IFNγ-PE (clone XMG1.2, BD Biosciences), and anti-TNFα-PerCP/Cy5.5 (clone MP6-XT22, Biolegend).
The following markers were used for identifying different immune cell subsets: TCRβ^+CD1d-Teteramer^+ for NKT cells, CD3^+CD4^hi for hepatic CD4^+ T cells, CD3^+CD8^+ for CD8^+ T cells, CD3^−CD19^+ for B cells, CD3^−CD49b^+ for NK cells, CD3^+TCRγ/δ^+ for γ/δ T cells, CD11b^+Ly6G^+Ly6C^lo for G-MDSC. Absolute numbers were calculated by multiplying frequencies obtained from flow cytometry by the total live mononuclear cell count, and then divided by liver weight.

[3] = reported; cited from earlier work
CXCL16 [4] = assay: CXCL16 mRNA in SK-HEP1 cells administered bile acids; assay type: cell-based, human; settings: 24 hours
From the text: FIG. 34A is a dot plot showing CXCL16 mRNA levels measured by real-time PCR in SK-HEP1 cells administered different bile acids, in accordance with embodiments of the invention. n=6, p<0.05, one-way ANOVA.
(§2) Primary mice liver sinusoidal endothelia cells were isolated as previously described (Limmer et al., Nat. Med., 6: 1348-1354 (2000), incorporated by reference herein). Briefly, mice were CO2 euthanized, and then the portal vein was cannulated, and the liver was perfused with 0.05% collagenase in Ca^2+ deprived medium. Liver cells were dissociated, and parenchymal cells were killed by incubation in 0.04% collagenase in Gey's balanced salt solution at 37° C. for 15 minutes. Then density gradient centrifugation was performed using Nycodenz solution at the final solution of 1.089 g/cm^3. Liver sinusoidal endothelial cells (LSEC) were isolated using anti-LSEC microbeads (Miltenyi, Bergisch Gladbach, Germany) according to the manufacturer's instructions. LSECs or the human SK-HEP1 cell line (ATCC, HTB-52) were administered different bile acids for 24 hours. Gene expression was analyzed by real-time PCR. Taurocholic acid (TCA), chenodeoxycholic acid (CDCA), deoxycholic acid (DCA), and taurodeoxycholic acid (TDCA) were purchased from Sigma (now Millpore-Sigma, St. Louis, Mo., USA). […]

hepatic NKT cells [5] = assay: In vivo bile acids feeding, hepatic NKT cell levels; settings: ABX-administered mice, oral gavage 6 mg/15 g body weight at 48, 24 and 16 hrs
From the text: Mice were kept on ABX cocktail and fresh ABX was replaced every other day. Mice were fed with bile acids by oral gavage 48, 24 and 16 hrs prior to sacrifice.

CXCL16 [6] = assay: CXCL16 mRNA in primary murine LSECs administered bile acids; assay type: cell-based, mice; settings: primary murine LSECs in vitro, 24 hours
From the text: FIG. 28E is a dot plot showing CXCL16 mRNA levels of isolated LSECs administered different bile acids, in accordance with embodiments of the invention. n=5, p<0.05, one-way ANOVA.
FIG. 28F is a dot plot showing CXCL16 mRNA levels of isolated LSECs administered a combination of T-b-MCA with T-w-MCA or ω-MCA. n=5, p<0.05, one-way ANOVA.
as §2, with “PCR.” for “PCR. Taurocholic acid (TCA), chenodeoxycholic acid (CDCA), deoxycholic acid (DCA), and taurodeoxycholic acid (TDCA) were purchased from Sigma (now Millpore-Sigma, St. Louis, Mo., USA).”

[7] = fecal bacteria, one day after oral gavage

| Molecule | Clostridium in stool (Clostridum Cluster XIVa) | hepatic CD4+ or CD8+ T cells (hepatic NKT cells [2]) | hepatic NKT cells (hepatic NKT cells [2]) | bile acids in the gut [3] | cxcl16 mRNA expression (CXCL16 [4]) | also measured |
| --- | --- | --- | --- | --- | --- | --- |
| CN[C@H](CC(C)C)C(=O)N[C@H]1C(=O)N[C@@H](CC(N)=O)C(=O)N[C@H]2C(=O)N[C@H]3C(=O)N[C@H](C(=O)N[C@H](C(=O)O)c4cc(O)cc(O)c4-c4cc3ccc4O)[C@H](O)c3ccc(c(Cl)c3)Oc3cc2cc(c3O[C@@H]2O[C@H](CO)[C@@H](O)[C@H](O)[C@H]2O[C@H]2C[C@](C)(N)[C@H](O)[C@H](C)O2)Oc2ccc(cc2Cl)[C@H]1O [vancomycin] | depleted Clostridium | No significant changes | sufficient to increase hepatic NKT cells | deplete secondary bile acids and increase primary bile acids in the gut | – | fecal secondary bile acids ([1]; obese individuals): decreased fecal secondary bile acids; primary bile acids in plasma ([1]; postprandial): postprandial increase in primary bile acids in plasma; Bacteroidales (stool bacteria; [7]): 0.0%; Burkholderiales (stool bacteria; [7]): 4.4%; Clostridiales (stool bacteria; [7]): 3.9%; Enterobacteriales (stool bacteria; [7]): 10.7%; Lactobacillales (stool bacteria; [7]): 43.7%; Verrucomicrobiales (stool bacteria; [7]): 34.3%; change of stool bacteria populations, in words (stool bacteria; vancomycin compared to H2O group, C. scindens gavage after vancomycin): reduction of Clostridiales and Bacteroidales but an expansion of Verrucomicrobiales |
| C[C@H](CCC(=O)O)[C@H]1CC[C@H]2[C@@H]3[C@H](O)C[C@@H]4C[C@H](O)CC[C@]4(C)[C@H]3CC[C@]12C [CDCA, chenodeoxycholic acid] | – | – | – | – | induced | hepatic NKT accumulation (hepatic NKT cells [5]): enhanced NKT cell accumulation |
| neomycin | could not remove Clostridium | No significant changes | little effect | – | – | – |
| C[C@H](CCC(=O)NCCS(=O)(=O)O)[C@H]1CC[C@H]2[C@@H]3[C@@H](O)[C@@H](O)[C@@H]4C[C@H](O)CC[C@]4(C)[C@H]3CC[C@]12C [T-β-MCA, Tauro-β-muricholic acid] | – | – | – | – | – | cxcl16 mRNA expression (CXCL16 [6]): induced |
| CCN1CCN(C(=O)N[C@@H](C(=O)N[C@@H]2C(=O)N3C(C(=O)O)=C(CSc4nnnn4C)CS[C@H]23)c2ccc(O)cc2)C(=O)C1=O [cefoperazone] | – | No significant changes | increase of liver NKT cells | deplete secondary bile acids and increase primary bile acids in the gut | – | – |
| C[C@H](CCC(=O)NCCS(=O)(=O)O)[C@H]1CC[C@H]2[C@@H]3[C@H](O)C[C@@H]4C[C@H](O)CC[C@]4(C)[C@H]3C[C@H](O)[C@]12C [TCA, Taurocholic acid] | – | – | – | – | induced | – |
